# Assay results taken from US20240415819A1, “MACROCYCLIC COMPOUNDS AS PROTEASOME SUBUNIT BETA TYPE-5 INHIBITORS” (Lead Discovery Center GmbH, priority 2021, published 2024).
# Biological target: T1, β5 subunit of the human constitutive proteasome (CPS) (Homo sapiens, UniProt P28074)
# T1 construct: purchased Boston Biochem E-360
# Test: β5 inhibition assay, human constitutive proteasome (Suc-LLVY-AMC)
# Assay type: biochemical
# Settings: IC50 class, Suc-LLVY-AMC substrate
# Procedure: The enzymatic activity of the β5 subunit of the human constitutive proteasome (CPS) is analyzed. In another assay, which differs from the assay of the human constitutive proteasome only in using the human immunoproteasome (IPS) the enzymatic activity of the β5 subunit of the human immunoproteasome (IPS) is analyzed. […] Inhibition is indicated as IC50 [nM] (“-”=not measured).
row,IC50 [nM],SMILES
1,< 100,Cc1ccc2cc1CNC(=O)[C@H](CCc1ccccc1)NC(=O)[C@@H](NC(=O)CCNC(=O)C1CCC3(CCOCC3)CC1)CC(=O)N1CCCC(CCO2)C1 (stereo partly drawn) [Compound 576]
2,< 100,"Cc1ccc2cc1CNC(=O)[C@H](CCc1ccccc1)NC(=O)[C@@H](NC(=O)CCOCCCC1CCCC1)CC(=O)N1CCCC(CCO2)C1 (stereo partly drawn) [Compound 620, 3-(3-cyclopentylpropoxy)-N-((9S,12S)-5^4-methyl-8,11,14-trioxo-9-phenethyl-4-oxa-7,10-diaza-1(3,1)-piperidina-5(1,3)-benzenacyclotetradecaphane-12-yl)propanamide]"

# Biological target: T2, β5 subunit of the human immunoproteasome (IPS) (Homo sapiens, UniProt P28062)
# T2 construct: purchased Boston Biochem E-370
# Test: β5 inhibition assay, human immunoproteasome (Suc-LLVY-AMC)
# Assay type: biochemical
# Settings: IC50 class, Suc-LLVY-AMC substrate
# Procedure: The enzymatic activity of the β5 subunit of the human constitutive proteasome (CPS) is analyzed. In another assay, which differs from the assay of the human constitutive proteasome only in using the human immunoproteasome (IPS) the enzymatic activity of the β5 subunit of the human immunoproteasome (IPS) is analyzed. Incubation of the enzyme with its fluorogenic substrate Suc-LLVY-AMC leads to liberation of the fluorescent dye AMC which can be measured with a suitable plate reader. • 100 mM HEPES pH7.5 • 50 mM NaCl • 0.02% SDS • 1 mM DTT (add fresh) • Victor X5 (Perkin Elmer) • Label: Umbeliferone (0.1s) • Excitation wavelength: 355 nm • Emission wavelength: 460 nm • 4 μl human cPS or IPS enzyme in assay buffer (final assay concentration 1 nM) or 4 μl assay buffer for negative controls • Compound addition via acoustic dispenser (Echo 520, Labcyte) • Mix and incubate @ RT for 10 min • 4 μl Suc-LLVY-AMC substrate (final assay concentration 22.6 μM) • Mix and incubate @ RT for 4 h (dark) • Stop reaction with 4 μl Bortezomib (final assay concentration 1 μM) • 15 min @ RT • Measure (Excitation 355 nm; Emission 460 nm)
row,IC50 [nM],SMILES
1,< 100,Cc1ccc2cc1CNC(=O)[C@H](CCc1ccccc1)NC(=O)[C@@H](NC(=O)CCNC(=O)C1CCC3(CCOCC3)CC1)CC(=O)N1CCCC(CCO2)C1 (stereo partly drawn) [Compound 576]
2,< 100,"Cc1ccc2cc1CNC(=O)[C@H](CCc1ccccc1)NC(=O)[C@@H](NC(=O)CCOCCCC1CCCC1)CC(=O)N1CCCC(CCO2)C1 (stereo partly drawn) [Compound 620, 3-(3-cyclopentylpropoxy)-N-((9S,12S)-5^4-methyl-8,11,14-trioxo-9-phenethyl-4-oxa-7,10-diaza-1(3,1)-piperidina-5(1,3)-benzenacyclotetradecaphane-12-yl)propanamide]"

# Test system: HT-29 cells
# Test: CellTiter-Glo luminescent cell viability assay with HT-29 cells (72h incubation)
# Assay type: cell-based, human
# Settings: Homo sapiens, HT-29, HT29 cells, read-out: CTG HT29
# Procedure: Cell Titer Glo Viability Assay with HT-29 Cells (72h Incubation) The CellTiter-Glo Luminescent Cell Viability Assay (Promega) is a homogeneous method of determining the number of viable cells in culture. It is based on quantification of ATP, indicating the presence of metabolically active cells. On day 1 400 HT-29 cells per well are seeded in white 384well plates (Greiner, #781080) in 25 μl cell culture medium (DMEM (PAN-Biotech #P04-03590)+10% FCS+glutamine). After incubation for 24 h at 37° C./5% CO2 compounds or DMSO are added at different concentrations by Echo Liquid Handling Technology. Cells are further incubated in humidified chambers for 72 h at 37° C. and 5% CO2. Cells treated with the compound vehicle DMSO are used as positive controls and cells treated with 10 μM Staurosporine serve as negative controls. At day 5-72h after compound addition—the CellTiter Glo Reagent is prepared according to the instructions of the kit (Promega Inc.): Reagent is mixed 1:1 with cell culture medium. Thereon, mixture and assay plates are equilibrated at room temperature for 20 min. Equal volumes of the reagent-medium-mixture is added to the volume of culture medium present in each well. The plates are mixed at […] for 2 minutes on an orbital shaker. The microplates are then incubated at room temperature for 10 minutes for stabilization of the luminescent signal. Following incubation the luminescence is recorded on a Victor microplate reader (Perkin Elmer) using a 200 ms integration time. The data is then analyzed with Excel using the XLFIT Plugin (dose response Fit 205) for IC50-determination. As quality control the Z′-factor is calculated from 16 positive and negative control values. […] Inhibition is indicated as IC50 [nM] (“-”=not measured).
row,SMILES,IC50 [nM]
1,"Cc1ccc2cc1CNC(=O)C(CCc1cnccn1)NC(=O)[C@@H](NC(=O)[C@@H](C)c1ccccc1)CC(=O)N1CCCC(CCO2)C1 (stereo partly drawn) [Compound 107, (2S)—N-((12S)-5^4-methyl-8,11,14-trioxo-9-(2-(pyrazin-2-yl)ethyl)-4-oxa-7,10-diaza-1(3,1)-piperidina-5(1,3)-benzenacyclotetradecaphane-12-yl)-2-phenylpropanamide]",< 100
2,"Cc1cccc(CC(=O)N[C@H]2CC(=O)N3CCCC(CCOc4ccc(C)c(c4)CNC(=O)[C@H](CCc4ccccc4)NC2=O)C3)c1 (stereo partly drawn) [Compound 62, N-((9S,12S)-5^4-methyl-8,11,14-trioxo-9-phenethyl-4-oxa-7,10-diaza-1(3,1)-piperidina-5(1,3)-benzenacyclotetradecaphane-12-yl)-2-(m-tolyl)acetamide]",< 100
3,"CC(=O)N[C@H]1CC(=O)NCCOc2ccc(C)c(c2)CNC(=O)[C@H](CCc2ccccc2)NC1=O [Compound 252, N-((8S,11S)-1^4-methyl-6,9,12-trioxo-11-phenethyl-2-oxa-5,10,13-triaza-1(1,3)-benzenacyclotetradecaphane-8-yl)acetamide]",100 to 500
4,"CCNC(=O)N[C@H]1CC(=O)N2CCCC(CCOc3ccc(C)c(c3)CNC(=O)[C@H](CCc3ccccc3)NC1=O)C2 (stereo partly drawn) [Compound 38, 1-ethyl-3-((9S,12S)-5^4-methyl-8,11,14-trioxo-9-phenethyl-4-oxa-7,10-diaza-1(3,1)-piperidina-5(1,3)-benzenacyclotetradecaphane-12-yl)urea]",< 100
5,"Cc1ccc2cc1CNC(=O)[C@H](CCc1ccccc1)NC(=O)[C@@H](NC(=O)Cc1ccc(N)cc1)CC(=O)N1CCC[C@H](CCO2)C1 [Compound 172, 2-(4-aminophenyl)-N-((13R,9S,12S)-5^4-methyl-8,11,14-trioxo-9-phenethyl-4-oxa-7,10-diaza-1(3,1)-piperidina-5(1,3)-benzenacyclotetradecaphane-12-yl)acetamide]",< 100
6,"Cc1ccc2cc1CNC(=O)[C@H](CCc1ccccc1)NC(=O)[C@@H](NS(=O)(=O)CCCc1ccccc1)CC(=O)N1CCCC(CCO2)C1 (stereo partly drawn) [Compound 44, N-((9S,12S)-5^4-methyl-8,11,14-trioxo-9-phenethyl-4-oxa-7,10-diaza-1(3,1)-piperidina-5(1,3)-benzenacyclotetradecaphane-12-yl)-3-phenyloropane-1-sulfonamide]",< 100
7,"CCC1(C(=O)N[C@H]2CC(=O)N3CCCC(CCOc4ccc(C)c(c4)CNC(=O)[C@H](CCc4ccccc4)NC2=O)C3)CCNCC1 (stereo partly drawn) [Compound 151, 4-ethyl-N-((9S,12S)-5^4-methyl-8,11,14-trioxo-9-phenethyl-4-oxa-7,10-diaza-1(3,1)-piperidina-5(1,3)-benzenacyclotetradecaphane-12-yl)piperidine-4-carboxamide]",< 100
8,"Cc1ccc2cc1CNC(=O)C(CCc1ccccc1)NC(=O)CCC(=O)N1CCCC(CCO2)C1 (stereo not drawn) [Compound 495, 5^4-methyl-9-phenethyl-4-oxa-7,10-diaza-1(3,1)-piperidina-5(1,3)-benzenacyclotetradecaphane-8,11,14-trione]",100 to 500
9,"Cc1ccc2cc1CNC(=O)[C@H](CCc1ccccc1)NC(=O)CCCCCC(=O)N1CCCC(CCO2)C1 (stereo partly drawn) [Compound 22, (9S)-5^4-methyl-9-phenethyl-4-oxa-7,10-diaza-1(3,1)-piperidina-5(1,3)-benzenacycloheptadecaphane-8,11,17-trione]",1000 to 5000

# The remaining lines, values ahead:
row,IC50 [nM],SMILES
1,100 to 500,"CC(=O)N[C@H]1CC(=O)N2CC3CC(Oc4ccc(C)c(c4)CNC(=O)[C@H](CCc4ccccc4)NC1=O)C3C2 (stereo partly drawn) [Compound 298, N-(3^4-methyl-6,9,12-trioxo-7-phenethyl-2-oxa-13,5,8-triaza-1(6,3)-bicyclo[3.2.0]heptana-3(1,3)-benzenacyclododecaphane-10-yl)acetamide]"
2,100 to 500,"CC(=O)N[C@H]1CC(=O)N2CCCC(CCOc3ccc(C)c(c3)CNC(=O)C(c3cnn(CCS(=O)(=O)O)c3)NC1=O)C2 (stereo partly drawn) [Compound 572, N-(4-((12S)-12-acetamido-5^4-methyl-8,11,14-trioxo-4-oxa-7,10-diaza-1(3,1)-piperidina-5(1,3)-benzenacyclotetradecaphane-9-yl)-1H-pyrazol-1-yl)ethane-1-sulfonic acid]"
3,100 to 500,"CC(=O)N[C@H]1CC(=O)N2CCC(CC2)Oc2ccc(C)c(c2)CNC(=O)[C@H](CCc2ccccc2)NC1=O [Compound 254, N-((7S,10S)-3^4-methyl-6,9,12-trioxo-7-phenethyl-2-oxa-5,8-diaza-1(4,1)-piperidina-3(1,3)-benzenacyclododecaphane-10-yl)acetamide]"
4,100 to 500,"CC(=O)N[C@H]1CC(=O)N2CCC(C2)Oc2ccc(C)c(c2)CNC(=O)[C@H](CCc2ccccc2)NC1=O (stereo partly drawn) [Compound 261, N-((7S,10S)-3^4-methyl-6,9,12-trioxo-7-phenethyl-2-oxa-5,8-diaza-1(3,1)-pyrrolidina-3(1,3)-benzenacyclododecaphane-10-yl)acetamide]"

# Test system: A549 (human lung carcinoma cell line)
# Test: Glo assay of A549 cells (Table 3; ProteasomeGlo plating scheme)
# Assay type: cell-based
# Settings: Homo sapiens; A549 cells; read-out: PGLo A549
# Description: Inhibition is indicated as IC50 [nM] (“-”=not measured). […] • Chymotrypsin-Like Cell-Based Proteasome-GloTM Assay (Promega; […]) • Cell culture 384-well plates (Greiner BioOne; 781080) • Dispensing cassette, MultiDrop Standard tube dispensing cassette (Thermo Scientific; 24072670) • DPBS (Pan BioTech; P04-36500) • Cell culture 384-well plates (Greiner BioOne; 781080) • CPD source plate: diamond-shape plate (Labcyte; LP-0200) • Intermediate plate (Labcyte; P-05525) [table] • a. Remove the plates with cells from the incubator. • b. Take all the plates including the compound plate, intermediate plate and Staurosporine plate to the ECHO. • c. Click on “Open” in the ECHO software and select the protocol “QLI5_25ul_30 uM-Grenier”. • d. Follow the on-screen prompts and instructions once you click “Start” to insert the compound plate, intermediate plate and destination plates. • e. Change the final number of destination plates on the program. • f. Follow the on-screen prompts and instructions once you click “Start” to load the Staurosporine and destination plates. • g. Once all the compounds, DMSO and Staurosporine have been transferred, place the destination plates in a wet tissue box. • h. Place the destination plates back into the incubator and incubate at 37° C., 5% CO2 for 105 minutes. • i. Re-seal all the compound+Stauro diamond and intermediate plates and store in the dark. Chymotrypsin like ProteasomeGlo Assay • 1. Thaw the components of the ProteasomeGlo assay at room temperature including the ProteasomeGlo Buffer, the lyophilized Luciferin Detection Reagent and the Suc-LLVY-Glo Substrate. • 2. Reconstitute the Luciferin Detection Reagent in the amber coloured bottle by adding 50 ml of the ProteasomeGlo Buffer. • 3. Vortex the Suc-LLVY-Glo Substrate briefly to reconstitute the Substrate well. • 4. Spin down the Substrate and add 250 μl of the Substrate to the reconstituted Luciferin Detection Reagent from step 2. • 5. Briefly vortex the amber bottle with the mix to prepare a homogenous solution. • 6. Place the mix prepared in step 5 to sit at room temperature for 60 minutes. • 7. After 60 minutes, pipette 25 μl of the mix from step 5 into all wells with the cells. • 8. Shake the plates for 2-5 minutes to ensure the complete mixing of the ProteasomeGlo reagent with the cells. • 9. Leave the plates in the dark for 10-15 minutes. • 10. Measure the luminescence read-out using the Viktor and the protocol “Luminescence_384Well_0.2 sec”. (Note: The Protoeasome-GloTM Reagent (combined Proteasome-GloTM Substrate, Proteasome-GloTM Buffer and Luciferin Detection Reagent) can be stored at 4° C. or -20° C. for 1 month with minimal loss of activity.)
row,IC50 [nM],SMILES
1,< 100,"Cc1ccc2cc1CNC(=O)[C@H](CCc1ccccc1)NC(=O)[C@@H](NC(=O)CCOCCCC1CCCC1)CC(=O)N1CCCC(CCO2)C1 (stereo partly drawn) [Compound 620, 3-(3-cyclopentylpropoxy)-N-((9S,12S)-5^4-methyl-8,11,14-trioxo-9-phenethyl-4-oxa-7,10-diaza-1(3,1)-piperidina-5(1,3)-benzenacyclotetradecaphane-12-yl)propanamide]"
